Laboratory results from ChEMBL document CHEMBL1158103, “Theopapuamide, a cyclic depsipeptide from a Papua New Guinea lithistid sponge Theonella swinhoei” (J Nat Prod, 2006).

Key:
[1] = Cytotoxicity against human CEM-TART cells after 72 hrs by MTT assay; format: cell-based
[2] = Cytotoxicity against human HCT 116 cells after 48 hrs by MTT assay; format: functional, cell-based; conditions: HCT-116, 48 h

With `CCC(C)CC(C)C(O)C(C)C(=O)N[C@H](CN)C(=O)NC(C(O)C(O)C(=O)N[C@H](C(=O)N[C@H]1C(=O)N[C@H]([C@@H](C)O)C(=O)N[C@H](CCCN)C(=O)N[C@@H](CC(C)C)C(=O)N(C)[C@@H](CCC(N)=O)C(=O)N[C@@H]([C@@H](OC)C(N)=O)C(=O)N[C@H](CC(N)=O)C(=O)N(C)[C@@H](CC(C)C)C(=O)O[C@@H]1C)[C@H](C)C(C)C(N)=O)C(C)(C)O` (some centres not stated) [THEOPAPUAMIDE] as the compound, how does the EC50 [1] read?
Its EC50 is 500 nM.

And the EC50 [2]?
Its EC50 is 900 nM.
